Measurements from PubChem BioAssay AID1259407 (Chemical Carcinogenesis Research Information System (CCRIS), 2018).
The source made the active and inactive calls. No rule for the calls is given here.

System: CCRIS mutagenicity, Ames/micronucleus/aberration tests
Test: CCRIS mutagenicity studies

In the case of `C=CCc1ccc(O)c(OC)c1`, the mutagenic call (End Point: IN VITRO CHROMOSOMAL ABERRATIONS, Test System: CHINESE HAMSTER OVARY CELLS, Metabolic Activation: NONE) is reported as “inactive; negative”, the mutagenic call (End Point: IN VITRO CHROMOSOMAL ABERRATIONS, Test System: CHINESE HAMSTER OVARY CELLS, Metabolic Activation: RAT, LIVER, S-9, AROCLOR 1254) is reported as “active; positive” and the mutagenic call (End Point: IN VITRO CHROMOSOMAL ABERRATIONS, Test System: CHO-WBL CELLS, Metabolic Activation: RAT, LIVER, S-9, PHENOBARBITAL AND BETA-NAPHTHOFLAVONE) is reported as “active; positive (at 24 hr)”. The mutagenic call (End Point: IN VITRO CHROMOSOMAL ABERRATIONS, Test System: SYRIAN HAMSTER EMBRYO (SHE) CELLS, Metabolic Activation: NONE) was “active; positive (structural changes)”, the mutagenic call (End Point: IN VITRO CHROMOSOMAL ABERRATIONS, Test System: SYRIAN HAMSTER EMBRYO (SHE) CELLS, Metabolic Activation: RAT, LIVER, S-9) was “active; positive (structural changes)” and the mutagenic call (End Point: IN VIVO MICRONUCLEUS, Test System: BONE MARROW POLYCHROMATIC ERYTHROCYTES, Species: MOUSE, Strain/Sex: DDY/MALE, Route: IP) was “inactive; negative”. For the same compound, the mutagenic call (Test System: AMES SALMONELLA TYPHIMURIUM, Strain/Indicator: TA97, Metabolic Activation: NONE, Method: PREINCUBATION (120 MIN)) was “inactive; negative”, the mutagenic call (Test System: AMES SALMONELLA TYPHIMURIUM, Strain/Indicator: TA97, Metabolic Activation: S-9, Method: PREINCUBATION (120 MIN)) was “inactive; negative” and the mutagenic call (Test System: AMES SALMONELLA TYPHIMURIUM, Strain/Indicator: TA98, Metabolic Activation: HAMSTER, LIVER, S-9, AROCLOR 1254, Method: PREINCUBATION) was “inactive; negative”. The mutagenic call (Test System: AMES SALMONELLA TYPHIMURIUM, Strain/Indicator: TA98, Metabolic Activation: NONE, Method: PREINCUBATION) was “inactive; negative”, the mutagenic call (Test System: AMES SALMONELLA TYPHIMURIUM, Strain/Indicator: TA98, Metabolic Activation: NONE, Method: PREINCUBATION (120 MIN)) was “inactive; negative” and the mutagenic call (Test System: AMES SALMONELLA TYPHIMURIUM, Strain/Indicator: TA98, Metabolic Activation: NONE, Method: STANDARD PLATE) was “inactive; negative”. The mutagenic call (Test System: AMES SALMONELLA TYPHIMURIUM, Strain/Indicator: TA98, Metabolic Activation: RAT, LIVER, S-9, AROCLOR 1254, Method: PREINCUBATION) was “inactive; negative”, the mutagenic call (Test System: AMES SALMONELLA TYPHIMURIUM, Strain/Indicator: TA98, Metabolic Activation: RAT, LIVER, S-9, AROCLOR 1254, Method: STANDARD PLATE) was “inactive; negative” and the mutagenic call (Test System: AMES SALMONELLA TYPHIMURIUM, Strain/Indicator: TA98, Metabolic Activation: S-9, Method: PREINCUBATION (120 MIN)) was “inactive; negative”. The mutagenic call (Test System: AMES SALMONELLA TYPHIMURIUM, Strain/Indicator: TA98, Metabolic Activation: S-9, Method: STANDARD PLATE) was “inactive; negative”, the mutagenic call (Test System: AMES SALMONELLA TYPHIMURIUM, Strain/Indicator: TA100, Metabolic Activation: HAMSTER, LIVER, S-9, AROCLOR 1254, Method: PREINCUBATION) was “inactive; negative” and the mutagenic call (Test System: AMES SALMONELLA TYPHIMURIUM, Strain/Indicator: TA100, Metabolic Activation: NONE, Method: PREINCUBATION) was “inactive; negative”. For the same compound, the mutagenic call (Test System: AMES SALMONELLA TYPHIMURIUM, Strain/Indicator: TA100, Metabolic Activation: NONE, Method: PREINCUBATION (120 MIN)) was “inactive; negative”, the mutagenic call (Test System: AMES SALMONELLA TYPHIMURIUM, Strain/Indicator: TA100, Metabolic Activation: NONE, Method: STANDARD PLATE) was “inactive; negative” and the mutagenic call (Test System: AMES SALMONELLA TYPHIMURIUM, Strain/Indicator: TA100, Metabolic Activation: RAT, LIVER, S-9, AROCLOR 1254, Method: PREINCUBATION) was “inactive; negative”. The mutagenic call (Test System: AMES SALMONELLA TYPHIMURIUM, Strain/Indicator: TA100, Metabolic Activation: RAT, LIVER, S-9, AROCLOR 1254, Method: STANDARD PLATE) was “inactive; negative”, the mutagenic call (Test System: AMES SALMONELLA TYPHIMURIUM, Strain/Indicator: TA100, Metabolic Activation: S-9, Method: PREINCUBATION (120 MIN)) was “inactive; negative” and the mutagenic call (Test System: AMES SALMONELLA TYPHIMURIUM, Strain/Indicator: TA100, Metabolic Activation: S-9, Method: STANDARD PLATE) was “inactive; negative”. For the same compound, the mutagenic call (Test System: AMES SALMONELLA TYPHIMURIUM, Strain/Indicator: TA1535, Metabolic Activation: HAMSTER, LIVER, S-9, AROCLOR 1254, Method: PREINCUBATION) was “inactive; negative”, the mutagenic call (Test System: AMES SALMONELLA TYPHIMURIUM, Strain/Indicator: TA1535, Metabolic Activation: NONE, Method: PREINCUBATION) was “inactive; negative” and the mutagenic call (Test System: AMES SALMONELLA TYPHIMURIUM, Strain/Indicator: TA1535, Metabolic Activation: NONE, Method: STANDARD PLATE) was “inactive; negative”. The mutagenic call (Test System: AMES SALMONELLA TYPHIMURIUM, Strain/Indicator: TA1535, Metabolic Activation: PAPS, Method: STANDARD PLATE) was “inactive; negative”, the mutagenic call (Test System: AMES SALMONELLA TYPHIMURIUM, Strain/Indicator: TA1535, Metabolic Activation: RAT, LIVER, S-9, AROCLOR 1254, PAPS, Method: STANDARD PLATE) was “active; positive” and the mutagenic call (Test System: AMES SALMONELLA TYPHIMURIUM, Strain/Indicator: TA1535, Metabolic Activation: RAT, LIVER, S-9, AROCLOR 1254, Method: PREINCUBATION) was “inactive; negative”. The mutagenic call (Test System: AMES SALMONELLA TYPHIMURIUM, Strain/Indicator: TA1535, Metabolic Activation: RAT, LIVER, S-9, AROCLOR 1254, Method: STANDARD PLATE) was “inactive; negative”, the mutagenic call (Test System: AMES SALMONELLA TYPHIMURIUM, Strain/Indicator: TA1537, Metabolic Activation: HAMSTER, LIVER, S-9, AROCLOR 1254, Method: PREINCUBATION) was “inactive; negative” and the mutagenic call (Test System: AMES SALMONELLA TYPHIMURIUM, Strain/Indicator: TA1537, Metabolic Activation: NONE, Method: PREINCUBATION) was “inactive; negative”. For the same compound, the mutagenic call (Test System: AMES SALMONELLA TYPHIMURIUM, Strain/Indicator: TA1537, Metabolic Activation: NONE, Method: STANDARD PLATE) was “inactive; negative”, the mutagenic call (Test System: AMES SALMONELLA TYPHIMURIUM, Strain/Indicator: TA1537, Metabolic Activation: RAT, LIVER, S-9, AROCLOR 1254, Method: PREINCUBATION) was “inactive; negative” and the mutagenic call (Test System: AMES SALMONELLA TYPHIMURIUM, Strain/Indicator: TA1537, Metabolic Activation: RAT, LIVER, S-9, AROCLOR 1254, Method: STANDARD PLATE) was “inactive; negative”. For the same compound, the mutagenic call (Test System: AMES SALMONELLA TYPHIMURIUM, Strain/Indicator: TA1538, Metabolic Activation: NONE, Method: STANDARD PLATE) was “inactive; negative”, the mutagenic call (Test System: AMES SALMONELLA TYPHIMURIUM, Strain/Indicator: TA1538, Metabolic Activation: RAT, LIVER, S-9, AROCLOR 1254, Method: STANDARD PLATE) was “inactive; negative” and the mutagenic call (Test System: MOUSE LYMPHOMA, Strain/Indicator: L5178Y (TK+/TK-), Metabolic Activation: NONE, Method: MICROWELL) was “active; positive”. For the same compound, the mutagenic call (Test System: MOUSE LYMPHOMA, Strain/Indicator: L5178Y (TK+/TK-), Metabolic Activation: S-9, Method: MICROWELL) was “active; positive”.
